This assay has as its target T1, BT2 (Bacteroides thetaiotaomicron, UniProt Q8A5T1).
T1 sequence (Q8A5T1 20-290): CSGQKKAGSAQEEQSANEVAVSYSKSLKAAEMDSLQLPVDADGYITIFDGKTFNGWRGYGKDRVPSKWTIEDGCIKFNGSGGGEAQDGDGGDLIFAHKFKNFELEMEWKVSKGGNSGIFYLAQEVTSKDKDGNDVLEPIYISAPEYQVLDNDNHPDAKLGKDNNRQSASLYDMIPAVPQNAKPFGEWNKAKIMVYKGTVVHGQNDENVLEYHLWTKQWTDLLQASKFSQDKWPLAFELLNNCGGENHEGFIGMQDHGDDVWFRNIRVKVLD
In words: 1H-NMR, elimination. The assay is classed as biochemical. As to conditions: elimination to 3-keto-2-hydroxy-glucal.

`CO[C@H]1O[C@H](CO)[C@@H](O)C(=O)[C@H]1O` [3-keto methyl α-glucoside]: the “1H-NMR, elimination” value is reported as “while AL/BT2 do so on the α anomer”.
